Measurements reported in BindingDB's records for doi:10.1021/jm0204587 (University of Pennsylvania, 2003).

Each compound was assayed against T1, Dimer of Gag-Pol polyprotein [501-599] (Human immunodeficiency virus 1, UniProt P03367) (assay: Protease Inhibition Assay). Settings: pH 5.5; 30 °C.
T1 construct: 501-599
Procedure: All enzyme assays were performed under initial velocity and steady-state conditions. The conditions for the enzyme catalyzed hydrolysis of the cleavage site peptide VSQN-(beta-naphthylalanine)-PIV were established with respect to time and enzyme concentration to yield linear initial velocity data. […] The detection of product was monitored with fluorescence (excitation 270 nm, emission 330 nm).

Compound	IC50 [nM]
O=C(N[C@@H](Cc1ccccc1)[C@@H](O)C[C@]1(Cc2ccccc2)N=CC(C2c3ccccc3C[C@H]2O)C1=O)O[C@H]1CCOC1 (stereo partly drawn) [(3S)-oxolan-3-yl N-[(2S,3S)-4-[(2S)-2-benzyl-4-[(2R)-2-hydroxy-2,3-dihydro-1H-inden-1-yl]-3-oxo-2,3-dihydro-1H-pyrrol-2-yl]-3-hydroxy-1-phenylbutan-2-yl]carbamate]	2
O=C(N[C@@H](Cc1ccccc1)[C@@H](O)C[C@@H](Cc1ccccc1)C(=O)NC1c2ccccc2C[C@H]1O)O[C@H]1CCOC1 (stereo partly drawn) [(3S)-oxolan-3-yl N-[(2S,3S,5R)-5-benzyl-3-hydroxy-5-{[(2R)-2-hydroxy-2,3-dihydro-1H-inden-1-yl]carbamoyl}-1-phenylpentan-2-yl]carbamate]	0.03
CC(C)C[C@H](NC(=O)[C@H](Cc1ccccc1)C[C@H](O)[C@H](Cc1ccccc1)NC(=O)OC(C)(C)C)C(=O)N[C@@H](Cc1ccccc1)C(N)=O [Hydroxyethylene dipeptide isostere]	0.6
CC(C)C[C@@]1(C2C=N[C@@](Cc3ccccc3)(C[C@H](O)[C@H](Cc3ccccc3)NC(=O)OC(C)(C)C)C2=O)N=CC([C@@H](Cc2ccccc2)C(N)=O)C1=O (some centres not stated) [Pyrrolinone deriv. 1]	10
CC(C)C[C@@]1(C2C=N[C@@](Cc3ccccc3)(C[C@H](O)[C@H](Cc3ccccc3)NC(=O)O[C@H]3CCOC3)C2=O)N=CC([C@@H](Cc2ccccc2)C(N)=O)C1=O (some centres not stated) [Pyrrolinone deriv. 2]	1.3
CC(C)(C)OC(=O)N[C@@H](Cc1ccccc1)[C@@H](O)C[C@]1(Cc2ccccc2)N=CC(C2c3ccccc3C[C@H]2O)C1=O (some centres not stated) [Pyrrolinone deriv. 6]	11.9
CC(C)(C)OC(=O)N[C@@H](Cc1ccccc1)[C@@H](O)C[C@@H](Cc1ccccc1)C(=O)NC1c2ccccc2C[C@H]1O (stereo partly drawn) [tert-butyl N-[(2S,3S,5R)-5-benzyl-3-hydroxy-5-{[(2R)-2-hydroxy-2,3-dihydro-1H-inden-1-yl]carbamoyl}-1-phenylpentan-2-yl]carbamate]	0.3
